The results in this text go back to US7799739B2, “Biphenylcarboxamides for controlling micro-organisms” (Bayer CropScience AG, priority 2005, dated 2010).

The test system of one data set is Puccinia recondita. In words: Puccinia test (wheat)/protective. It is filed as in vivo. To be noted: wheat plants, protective spray, application rate 1000 ppm, evaluation 10 days after inoculation. The protocol:
To produce a suitable preparation of active compound, 1 part by weight of active compound is mixed with the stated amounts of solvent and emulsifier, and the concentrate is diluted with water to the desired concentration.
To test for protective activity, young plants are sprayed with the active compound preparation at the stated application rate. After the spray coating has dried on, the plants are sprayed with a conidia suspension of Puccinia recondita. The plants remain in an incubation cabin at 20° C. and 100% relative atmospheric humidity for 48 hours.
The plants are then placed in a greenhouse at a temperature of about 20° C. and a relative atmospheric humidity of 80% to promote the development of rust pustules.
(§1) Evaluation is carried out 10 days after the inoculation. 0% means an efficacy which corresponds to that of the control, whereas an efficacy of 100% means that no infection is observed.

Data set [1] can be described thus: logP determination by HPLC on reverse-phase column (C 18), EEC Directive 79/831 Annex V.A8. The class given is physicochemical. Conditions: reverse-phase HPLC column (C 18), pH 2.3, HPLC, 0.1% aqueous phosphoric acid/acetonitrile, 43° C. As for the experimental part: The logP values given in the Tables and Preparation Examples above are determined in accordance with EEC Directive 79/831 Annex V.A8 by HPLC (High Performance Liquid Chromatography) on a reverse-phase column (C 18). Temperature: 43° C.
The determination is carried out in the acidic range at pH 2.3 using the mobile phases 0.1% aqueous phosphoric acid and acetonitrile; linear gradient from 10% acetonitrile to 90% acetonitrile.
Calibration is carried out using unbranched alkan-2-ones (having 3 to 16 carbon atoms) with known logP values (determination of the logP values by the retention times using linear interpolation between two successive alkanones).

For the next data set, the system named is Botrytis cinerea. Kind of data set: Botrytis test (bean)/protective. The class given is in vivo. To be noted: bean plants, protective spray, application rate 100 ppm, evaluation 2 days after inoculation. As for the experimental part: (§2) To produce a suitable preparation of active compound, 1 part by weight of active compound is mixed with the stated amounts of solvents and emulsifier, and the concentrate is diluted with water to the desired concentration.
To test for protective activity, young plants are sprayed with the active compound preparation at the stated application rate. After the spray coating has dried on, 2 small pieces of agar colonized by Botrytis cinerea are placed onto each leaf. The inoculated plants are placed in a dark chamber at about 20° C. and 100% relative atmospheric humidity.
The size of the infected areas on the leaves is evaluated 2 days after the inoculation. 0% means an efficacy which corresponds to that of the control, whereas an efficacy of 100% means that no infection is observed.

A further data set relates to Uromyces appendiculatus. In words: Uromyces test (bean)/protective. The class given is in vivo. Conditions: bean plants, protective spray, application rate 100 ppm, evaluation 10 days after inoculation. As for the experimental part: as §2
To test for protective activity, young plants are sprayed with the active compound preparation at the stated application rate. After the spray coating has dried on, the plants are inoculated with an aqueous spore suspension of the bean rust pathogen Uromyces appendiculatus and then remain in an incubation cabin at about 20° C. and 100% relative atmospheric humidity for 1 day. The plants are then placed in a greenhouse at about 21° C. and a relative atmospheric humidity of about 90%.
as §1

A further data set deals with Venturia inaequalis. Kind of data set: Venturia test (apple)/protective. It is filed as in vivo. Conditions: apple plants, protective spray, application rate 100 ppm, evaluation 10 days after inoculation. As for the experimental part: as §2
To test for protective activity, young plants are sprayed with the active compound preparation at the stated application rate. After the spray coating has dried on, the plants are inoculated with an aqueous conidia suspension of the apple scab pathogen Venturia inaequalis and then remain in an incubation cabin at about 20° C. and 100% relative atmospheric humidity for 1 day. The plants are then placed in a greenhouse at about 21° C. and a relative atmospheric humidity of about 90%.
as §1

The molecule `COC(=O)c1ccc(-c2cc(F)ccc2NC(=O)c2cn(C)nc2C(F)(F)F)cc1F` [drawing 34] returned an Efficacy in % in the data set on Puccinia recondita of 100%.
Take `COC(=O)c1ccc(-c2cc(F)ccc2N)cc1F` [No. 9 (III), methyl 2′-amino-3,5′-difluorobiphenyl-4-carboxylate]: the chromatographic logP in data set [1] (starting materials of formula (III)) worked out at 2.73.
`COC(=O)c1ccc(-c2cc(F)ccc2NC(=O)c2cn(C)nc2C(F)(F)F)cc1F` [No. 1, methyl 3,5′-difluoro-2′-({[1-methyl-3-(trifluoromethyl)-1H-pyrazol-4-yl]carbonyl}amino)biphenyl-4-carboxylate] returned a chromatographic logP in data set [1] (compounds of formula (I)) of 2.64.
The molecule `COC(=O)c1ccc(-c2cc(F)ccc2NC(=O)c2cn(C)nc2C(F)(F)F)cc1F` [drawing 31] showed an Efficacy in % with Botrytis cinerea of 78%.
As to `COC(=O)c1ccc(-c2cc(F)ccc2NC(=O)c2cn(C)nc2C(F)(F)F)cc1F` [drawing 32], the Efficacy in % with Uromyces appendiculatus worked out at 93%.
Turning to `COC(=O)c1ccc(-c2cc(F)ccc2NC(=O)c2cn(C)nc2C(F)F)cc1F` [drawing 33], the Efficacy in % with Uromyces appendiculatus was 78%.
For `COC(=O)c1ccc(-c2cc(F)ccc2NC(=O)c2cn(C)nc2C(F)F)cc1F` [drawing 35], the Efficacy in % with Puccinia recondita is on record as 90%.
In the data set on Venturia inaequalis, `COC(=O)c1ccc(-c2cc(F)ccc2NC(=O)c2cn(C)nc2C(F)F)cc1F` [drawing 30] showed an Efficacy in % of 71%.
